Reference: PubChem BioAssay AID2060601 (Molecular Pharmacology Branch, DTP, NCI, 2025)
pIC50: −log10 of the molar value.

System: 874868-142-R-J2-PDC complex spheroids, growth % test/control
Experiment: Anticancer human tumor 874868-142-R-J2-PDC patient-derived head and neck squamous carcinoma cell line growth inhibition [CLK]
Settings: for pIC50: curve of first compound; for viability, T/C: stronger effect = lower value; active = viability on the fitted dose curve at most 10% of control; inactive = the rest
Summary of the method: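 Patient-derived tumor cells grown as complex spheroids with HUVEC endothelial cells and mesenchymal stem cells, treated with drug combinations. Concentrations descend in half-log steps from near clinical Cmax, or from 10 microM if Cmax unknown.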

[1] = second compound 0.0316 µM, first compound 0.0316 µM
[2] = second compound 0.0316 µM, first compound 0.1 µM
[3] = second compound 0.0316 µM, first compound 0.316 µM
[4] = second compound 0.0316 µM, first compound 1 µM
[5] = second compound 0.0316 µM, first compound 3.16 µM
[6] = second compound 0.0316 µM, first compound 10 µM
[7] = second compound 0.1 µM, first compound 0.0316 µM
[8] = second compound 0.1 µM, first compound 0.1 µM
[9] = second compound 0.1 µM, first compound 0.316 µM
[10] = second compound 0.1 µM, first compound 1 µM
[11] = second compound 0.1 µM, first compound 3.16 µM
[12] = second compound 0.1 µM, first compound 10 µM
[13] = second compound 0.316 µM, first compound 0.0316 µM
[14] = second compound 0.316 µM, first compound 0.1 µM
[15] = second compound 0.316 µM, first compound 0.316 µM
[16] = second compound 0.316 µM, first compound 1 µM
[17] = second compound 0.316 µM, first compound 3.16 µM
[18] = second compound 0.316 µM, first compound 10 µM
[19] = second compound 1 µM, first compound 0.0316 µM
[20] = second compound 1 µM, first compound 0.1 µM
[21] = second compound 1 µM, first compound 0.316 µM
[22] = second compound 1 µM, first compound 1 µM
[23] = second compound 1 µM, first compound 3.16 µM
[24] = second compound 1 µM, first compound 10 µM
[25] = second compound 3.16 µM, first compound 0.0316 µM
[26] = second compound 3.16 µM, first compound 0.1 µM
[27] = second compound 3.16 µM, first compound 0.316 µM
[28] = second compound 3.16 µM, first compound 1 µM
[29] = second compound 3.16 µM, first compound 3.16 µM
[30] = second compound 3.16 µM, first compound 10 µM
[31] = second compound 10 µM, first compound 0.0316 µM
[32] = second compound 10 µM, first compound 0.1 µM
[33] = second compound 10 µM, first compound 0.316 µM
[34] = second compound 10 µM, first compound 1 µM
[35] = second compound 10 µM, first compound 3.16 µM
[36] = second compound 10 µM, first compound 10 µM
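Also: spheroids exposed to the compounds for 7 days.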
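For viability, T/C in this document: 100% = DMSO vehicle control viability.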

C=CC(=O)N1CCN(c2nc(=O)n(-c3c(C)ccnc3C(C)C)c3nc(-c4c(O)cccc4F)c(F)cc23)C(C)C1 (stereo unspecified) + CNC(=O)c1ccc(Nc2nc(OC3CCCC3)c3c(-c4ccc5nc(C)oc5c4)c[nH]c3n2)c(OC)c1
< 5.00: pIC50 (second compound 0.0316 µM) | pIC50 (second compound 0.1 µM) | pIC50 (second compound 0.316 µM)
> 7.50: pIC50 (second compound 1 µM) | pIC50 (second compound 3.16 µM) | pIC50 (second compound 10 µM)
inactive: viability, T/C [1] 99.7% | viability, T/C [2] 82.6% | viability, T/C [3] 96.6% | viability, T/C [4] 108% | viability, T/C [5] 124% | viability, T/C [6] 103% | viability, T/C [7] 82.7% | viability, T/C [8] 91.5% | viability, T/C [9] 90.3% | viability, T/C [10] 92.1% | viability, T/C [11] 101% | viability, T/C [12] 88% | viability, T/C [13] 50.4% | viability, T/C [14] 59.7% | viability, T/C [15] 56.9% | viability, T/C [16] 53.4% | viability, T/C [17] 59% | viability, T/C [18] 58.3% | viability, T/C [19] 40.6% | viability, T/C [20] 47.7% | viability, T/C [21] 36.3% | viability, T/C [22] 46.1% | viability, T/C [23] 41.2% | viability, T/C [24] 40.6% | viability, T/C [25] 42.8% | viability, T/C [26] 39.2% | viability, T/C [27] 41.1% | viability, T/C [28] 45.2% | viability, T/C [29] 53% | viability, T/C [30] 36.4% | viability, T/C [31] 31.3% | viability, T/C [32] 33.5% | viability, T/C [33] 35.4% | viability, T/C [34] 41% | viability, T/C [35] 40% | viability, T/C [36] 28.3%

CCCS(=O)(=O)Nc1ccc(F)c(C(=O)c2c[nH]c3ncc(-c4ccc(Cl)cc4)cc23)c1F + CNC(=O)c1ccc(Nc2nc(OC3CCCC3)c3c(-c4ccc5nc(C)oc5c4)c[nH]c3n2)c(OC)c1
> 7.50: pIC50 (second compound 1 µM) | pIC50 (second compound 3.16 µM) | pIC50 (second compound 10 µM)
< 5.00: pIC50 (second compound 0.0316 µM) | pIC50 (second compound 0.1 µM) | pIC50 (second compound 0.316 µM)
inactive: viability, T/C [1] 119% | viability, T/C [2] 122% | viability, T/C [3] 133% | viability, T/C [4] 143% | viability, T/C [5] 139% | viability, T/C [6] 87.8% | viability, T/C [7] 101% | viability, T/C [8] 104% | viability, T/C [9] 110% | viability, T/C [10] 144% | viability, T/C [11] 140% | viability, T/C [12] 84.6% | viability, T/C [13] 62.2% | viability, T/C [14] 59.6% | viability, T/C [15] 59.6% | viability, T/C [16] 61.8% | viability, T/C [17] 67.9% | viability, T/C [18] 53.2% | viability, T/C [19] 40.9% | viability, T/C [20] 38.2% | viability, T/C [21] 46.8% | viability, T/C [22] 54.9% | viability, T/C [23] 49.3% | viability, T/C [24] 45.3% | viability, T/C [25] 41.2% | viability, T/C [26] 38% | viability, T/C [27] 41.8% | viability, T/C [28] 38.8% | viability, T/C [29] 53.8% | viability, T/C [30] 32% | viability, T/C [31] 38.8% | viability, T/C [32] 44.1% | viability, T/C [33] 50.2% | viability, T/C [34] 37.6% | viability, T/C [35] 52.4% | viability, T/C [36] 45.2%

COC1C=CCC(C)C(C)S(=O)(=O)NC(=O)c2ccc3c(c2)N(CC2CCC21)CC1(CCCc2cc(Cl)ccc21)CO3 (stereo unspecified) + CNC(=O)c1ccc(Nc2nc(OC3CCCC3)c3c(-c4ccc5nc(C)oc5c4)c[nH]c3n2)c(OC)c1
7.10: pIC50 (second compound 0.316 µM)
inactive: viability, T/C [1] 92.5% | viability, T/C [2] 87.4% | viability, T/C [3] 64.6% | viability, T/C [4] 42.1% | viability, T/C [5] 28.4% | viability, T/C [6] 15.8% | viability, T/C [7] 92.2% | viability, T/C [8] 68% | viability, T/C [9] 57.1% | viability, T/C [10] 56.6% | viability, T/C [11] 28% | viability, T/C [12] 13.2% | viability, T/C [13] 58.7% | viability, T/C [14] 49.1% | viability, T/C [15] 35.6% | viability, T/C [16] 29.1% | viability, T/C [17] 25% | viability, T/C [18] 14.3% | viability, T/C [19] 44.4% | viability, T/C [20] 34.8% | viability, T/C [21] 24.9% | viability, T/C [22] 18.6% | viability, T/C [23] 14.8% | viability, T/C [24] 16.8% | viability, T/C [25] 36.9% | viability, T/C [26] 28.7% | viability, T/C [27] 25.7% | viability, T/C [28] 19.7% | viability, T/C [29] 18.5% | viability, T/C [30] 16.9% | viability, T/C [31] 40.1% | viability, T/C [32] 30.4% | viability, T/C [33] 32.8% | viability, T/C [34] 17.4% | viability, T/C [35] 20.6% | viability, T/C [36] 14.9%
6.15: pIC50 (second compound 0.0316 µM)
6.12: pIC50 (second compound 0.1 µM)
> 7.50: pIC50 (second compound 1 µM) | pIC50 (second compound 3.16 µM) | pIC50 (second compound 10 µM)
